In the NIST ThermoML archive (doi:10.1021/acs.jced.9b00046):

Details: 99.6 kPa, Liquid; for viscosity: Capillary tube (Ostwald / Ubbelohde) method; for mass density: Vibrating tube method

CNC(C)=O [N-methylacetamide]
Details	mass density [kg/m3]	viscosity [mPa·s]
308.15 K	945.71	3.488
313.15 K	941.53	3.073
318.15 K	937.33	2.723
323.15 K	933.16	2.438
328.15 K	928.93	2.194
